According to the OligoGym collection:
Bases are written 5' to 3'; sugars and linkages follow in the same order, as letters with counts (s phosphorothioate, o phosphodiester; PS: all linkages phosphorothioate). The collection does not say whether C is 5-methylated. l = locked nucleic acid (LNA); d = 2'-deoxy (DNA)

Biological target: not listed separately
Test: rat primary cortical neurons, FLIPR, 25 uM ASO

Row | Sequence | calcium oscillation score
1 | AAATCTATAATAACCACCAC (sugars l3 d14 l3, PS) | 80.2 % of control
2 | CAAACTTATATCTTTCAAAC (sugars l4 d12 l4, PS) | 78.3 % of control
3 | CAAATCATCCATCTATAAAC (sugars l4 d12 l4, PS) | 88.8 % of control
4 | CAACCAACAATACTTTAAAC (sugars l4 d12 l4, PS) | 85.6 % of control
5 | CACAACTATTAAATACCAAC (sugars l3 d14 l3, PS) | 83.8 % of control
6 | CACAATCTAACTATTAAC (sugars l3 d12 l3, PS) | 76.5 % of control
7 | CCAAATCTTATAATAACTAC (sugars ldlllddddddddddlldll, PS) | 80.2 % of control
8 | CTAAATCCTTAATATCAAAC (sugars l4 d12 l4, PS) | 79.3 % of control
9 | CTAATATTATAACCATCAAC (sugars l3 d14 l3, PS) | 82 % of control
10 | TAACTAACTTAACTCAAC (sugars l3 d12 l3, PS) | 74.7 % of control
11 | TACCATACAATAACTTTAAC (sugars l3 d14 l3, PS) | 76.5 % of control
12 | TACTCAAATATAACACCAAC (sugars l3 d14 l3, PS) | 85.6 % of control
13 | TCCACTAACCAATATAAC (sugars l3 d12 l3, PS) | 76.5 % of control

Biological target: STC1
Test: rat primary cortical neurons, FLIPR, 25 uM ASO

Row | Sequence | calcium oscillation score
14 | AACATTCAAGCCTTTC (sugars l3 d9 l4, PS) | 109 % of control
15 | ACATTCAAGCCTTTCC (sugars l4 d10 l2, PS) | 81.6 % of control
16 | ACCTGTAACTACTTCC (sugars l3 d11 l2, PS) | 100 % of control
17 | AGCTATTTATATTCCAC (sugars l2 d11 l4, PS) | 122 % of control
18 | ATAGTTATTCCATTCC (sugars l4 d10 l2, PS) | 105 % of control
19 | ATCAATATTATTCTTCT (sugars l5 d8 l4, PS) | 122 % of control
20 | ATTATTCTTCTGTTTCC (sugars l2 d11 l4, PS) | 67.6 % of control
21 | CAACATTCAAGCCTTT (sugars l5 d7 l4, PS) | 89.1 % of control
22 | CTAATTATATATTTCCAC (sugars l4 d10 l4, PS) | 119 % of control
23 | CTATTTATATTCCACAG (sugars l4 d11 l2, PS) | 69.8 % of control
24 | TAGTTATTCCATTCCC (sugars l2 d12 l2, PS) | 92.3 % of control
25 | TAGTTATTCCATTCCCA (sugars l2 d13 l2, PS) | 99.3 % of control
26 | TATTATTCTTCTGTTTC (sugars l3 d10 l4, PS) | 53.4 % of control
27 | TATTTATATTCCACAGT (sugars l3 d10 l4, PS) | 107 % of control
28 | TCAATATTATTCTTCTG (sugars l2 d11 l4, PS) | 35.4 % of control
29 | TTACAAGTCATTTCCCT (sugars l4 d11 l2, PS) | 91.8 % of control
30 | TTACCCAAATACACACA (sugars l4 d9 l4, PS) | 143 % of control
31 | TTACCCAAATACACACAT (sugars l4 d10 l4, PS) | 137 % of control
32 | TTACCCAAATACACACATA (sugars l3 d12 l4, PS) | 119 % of control

Biological target: Tau
Test: rat primary cortical neurons, FLIPR, 25 uM ASO

Row | Sequence | calcium oscillation score
33 | TTTTAATTAAATTTCTCCCT (sugars l4 d13 l3, PS) | 104 % of control
34 | TTTTACCAATTTGCCTA (sugars l2 d11 l4, PS) | 46.2 % of control
35 | TTTTATTTCCTCCGCCA (sugars l2 d13 l2, PS) | 18.5 % of control
36 | TTTTCAAACACACCTTCAT (sugars l3 d12 l4, PS) | 80.8 % of control
37 | TTTTCAAACACACCTTCATT (sugars l2 d14 l4, PS) | 98.6 % of control
38 | TTTTCCCAATTATTAACCC (sugars l3 d14 l2, PS) | 71.4 % of control
39 | TTTTCTCAATGTAACCT (sugars l4 d9 l4, PS) | 80.5 % of control
40 | TTTTCTCTCTTAACTTTATT (sugars l4 d12 l4, PS) | 89 % of control
41 | TTTTCTTGTTCTAACCCC (sugars l2 d13 l3, PS) | 50.1 % of control
42 | TTTTTACCAATTTGCCT (sugars l2 d11 l4, PS) | 55.5 % of control
43 | TTTTTATTCATAACTTTTCA (sugars l4 d12 l4, PS) | 56.4 % of control
44 | TTTTTCTCTCTTAACTTT (sugars l4 d10 l4, PS) | 94.5 % of control
45 | TTTTTCTCTCTTAACTTTA (sugars l4 d11 l4, PS) | 83.6 % of control
46 | TTTTTCTCTCTTAACTTTAT (sugars l4 d12 l4, PS) | 93.2 % of control
47 | TTTTTCTTGTTCTAACCC (sugars l4 d12 l2, PS) | 56.1 % of control
48 | TTTTTTAACTCCCAACTC (sugars l4 d10 l4, PS) | 95.2 % of control
49 | TTTTTTAACTCCCAACTCT (sugars l4 d13 l2, PS) | 95.7 % of control
50 | TTTTTTAACTCCCAACTCTT (sugars l4 d14 l2, PS) | 98.3 % of control
51 | TTTTTTATTCATAACTTTTC (sugars l4 d12 l4, PS) | 63.8 % of control
